# Test results reported in US11076597B2, “High stress resistant plant growth regulator and preparation method and use thereof” (SHANGHAI INSTITUTES FOR BIOLOGICAL SCIENCES, CHINESE …, priority 2015, dated 2021).
# pEC50: −log10 of the molar value. Entries after “also recorded” stand apart in the source; their conditions may differ. Like-named read-outs stand apart in the source and are kept apart here.
# What was measured:
# [1] = target: T1, PYL7 receptor-HAB1 protein phosphatase complex (Arabidopsis thaliana, UniProt Q1ECF1); test: AlphaScreen assay: promotion of PYL7 receptor binding to PP2C protein phosphatase HAB1
# T1 construct: made in house; host or cells: E. coli BL21 (DE3)
# T1 sequence (Q1ECF1 1-211): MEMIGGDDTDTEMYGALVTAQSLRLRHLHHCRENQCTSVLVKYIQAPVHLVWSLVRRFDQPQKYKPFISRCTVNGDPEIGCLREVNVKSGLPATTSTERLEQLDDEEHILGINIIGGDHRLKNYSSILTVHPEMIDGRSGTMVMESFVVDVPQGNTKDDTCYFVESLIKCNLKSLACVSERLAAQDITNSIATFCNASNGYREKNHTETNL
# T1 sequence (Q9CAJ0 172-511 partner limits assumed): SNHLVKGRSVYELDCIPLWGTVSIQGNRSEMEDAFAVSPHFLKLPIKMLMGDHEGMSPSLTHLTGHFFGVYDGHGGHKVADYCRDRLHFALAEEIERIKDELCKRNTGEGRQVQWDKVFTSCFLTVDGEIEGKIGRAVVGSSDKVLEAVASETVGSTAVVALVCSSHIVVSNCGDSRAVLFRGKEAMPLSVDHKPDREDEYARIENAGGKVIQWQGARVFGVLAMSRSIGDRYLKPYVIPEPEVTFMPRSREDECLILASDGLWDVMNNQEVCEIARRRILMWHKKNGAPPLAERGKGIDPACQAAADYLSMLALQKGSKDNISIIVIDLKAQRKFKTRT
# Text: The construction method of recombinant plasmids for the Arabidopsis thaliana genes PYL1 (amino acid sequence 36-211), PYL2 (amino acid sequence 14-188) with dual tags of 6×His and SUMO sequence and the Arabidopsis thaliana gene HAB1 (amino acid sequence 172-511) with the Biotin tag sequence is described in detail in “A gate-latch-lock mechanism for hormone signaling by abscisic acid receptors” (Nature, Vol 462, 2009). The construction method of recombinant plasmids for PYR1 and PYL7 (whole gene coding sequence) and Soybean GmPYL6 and rice OsPYL2 with dual tags of 6×His and SUMO sequence is the same as that for Arabidopsis PYL2.
# The above recombinant plasmid is transformed into competent cell of E. coli BL21 (DE3) (purchased from NEB company), and inoculated into 200 ml of LB liquid medium containing Amp resistance (purchased from OXOID company) and cultured overnight at 37° C. at 200 rpm; and inoculated into 2 L of LB liquid medium containing Amp resistance at a ratio of 1:50-1:100 for an extended culture, and cultured at 37° C., 200 rpm for 3-4 hours, and at a low temperature of 16° C. until OD600 is about 0.8-1.0. Recombinant plasmids for PYR1/PYL1/PYL2/PYL7/GmPYL6/OsPYL2 with dual tags of 6×His and SUMO sequence were induced overnight with 100 μM of IPTG while HAB1 recombinant plasmid with the Biotin tag sequence was induced simultaneously with 100 μM of IPTG and 40 μM of biotin.
# After 16 hours of induction, the bacterial solution was centrifuged at 4000 rpm for 20 minutes at 4° C. in a low-speed high-capacity centrifuge, and the bacteria cells were collected. Bacteria cells were resuspended in 50 ml of extraction buffer (containing 20 mM Tris, pH 8.0, 200 mM NaCl and 10% (v/v) glycerol) for per 2 L of bacterial solution and then subjected to pressure-breaking at […] and 4° C. for 3-5 times. The broken cells were subjected to ultracentrifugation, centrifuged at 16000 rpm for 30 minutes, and this process was repeated twice. The supernatant was collected and subjected to an affinity chromatography column. […]
# soybean = test: Leaf transpiration experiment, soybean; assay type: in vivo; details: 20 μM spray 14 days after sowing, two days after spraying; FIG. 5
# Description: ABA synthesis mutant aba2-1 was used in Arabidopsis leaf transpiration experiment. […] Therefore, this mutant is used to exclude the effect of endogenous ABA on the transpiration experiment. The plants were sprayed with a solution containing 0.05% tween-20 and corresponding concentrations of (+)-ABA/0224/0304/0706/0715/0428 or 0.05% Tween-20 and 0.05% DMSO (control) after three weeks of continuous watering with an amount of 1.2 ml/pot. Leaf transpiration experiments of soybeans were conducted at 26° C. with long-day lighting and soybeans were sprayed with a solution containing 0.1% tween-20 and 20 μM (+)-ABA/0224/0304 compound or 0.1% Tween-20 and 0.05% DMSO (control) 14 days after sowing with an amount of 4 ml/pot; the leaf transpiration experiments of cottons were sprayed with a solution containing 0.1% tween-20 and 20 μM (+)-ABA/0224 compound or 0.1% Tween-20 and 0.05% DMSO, respectively, 25 days after sowing with an amount of 4 ml/pot; the leaf transpiration experiments of wheats were sprayed with a solution containing 0.1% tween-20 and 100 μM (+)-ABA/0224 compound or 0.1% Tween-20 and 0.05% DMSO (control) 18 days after sowing with an amount of 6 ml/pot. Images were taken daily using the FLIR A655sc thermal imager at the same time before and after spraying.
# In this experiment, the temperature change of leaf surface was observed and recorded by an infrared camera, thus reflecting the strength of plant transpiration. The stronger the transpiration, the lower the leaf temperature.
# [2] = FIG. 2d, 6×His-SUMO-tagged PYL7 (whole coding sequence), Biotin-tagged HAB1 (aa 172-511), 100 nM each, pH 7.4, 1.5 h room temperature, read-out: EC50
"pEC50 [1, 2]",SMILES,pEC50 [1],leaf temperature versus DMSO control (leaf transpiration) (soybean)
–,"CC1=CC(=O)CC(C)(C)[C@@]1(O)/C=C/C(C)=C\C(=O)O [ABA, Abscisic Acid, reference compound]",5.94,had no difference from that in the control group
6.92,CCCN1C(=O)OC(C)c2cc(NS(=O)(=O)Cc3c(F)c(F)c(C)c(F)c3F)ccc21 (stereo not drawn) [Compound 0224],–,significantly reduce the transpiration rate of soybean leaf; also recorded: still significant higher than that of plants in DMSO-sprayed control group
6.92,CCCN1C(=O)OC(C)(C)c2cc(NS(=O)(=O)Cc3c(F)c(F)c(C)c(F)c3F)ccc21 [Compound 0304],–,significantly reduce the transpiration rate of soybean leaf; also recorded: still significant higher than that of plants in DMSO-sprayed control group
